Where a name gives a salt, the structure may show the parent alone.
Legend:
[1] = system: CHME3 cells; test: Cytotoxicity, MTS cell viability assay in CHME3 cells; type: cell-based, Human; settings: 72 h post treatment
Protocol: (§1) A cell viability assay was used to evaluate both the cytotoxicity and antiviral abilities of the iminosugars with appropriate controls as previously described ([Fletcher et al., 2000]) using the CellTiter 96® AQueous One Solution Cell Proliferation Assay (MTS, Promega, Madison, WI, United States) following the manufacturer’s instructions. At 60–70% confluence, Vero cells and CHME3 cells were pretreated with iminosugars for 2 h and then infected with ZIKV according to the plate layout shown in Supplementary Figure S1. Four biological replicates were used to assess cytotoxicity, and six replicates were used to assess the antiviral ability of each iminosugar with concentrations ranging from 0.01 to 1000 μM or vehicle (sterile nuclease-free water). Cells treated with iminosugars or vehicle control were infected with ZIKV strain PRVABC59, IBH30656 or MEX 2-81 at a multiplicity of infection (MOI) of 1 in infection medium consisting of DMEM supplemented with 5% FBS and 1% antibiotic/antimycotic solution. The CHME3 infection medium was additionally supplemented with 0.1% non-essential amino acids (NEAA). At 72 h post-infection (hpi), MTS solution was added to the wells, and after 2 h, the optical density was measured at 490 nm using a microplate reader (ELx800; BioTek, Winooski, VT, United States). Previous studies have shown that ER α-glucosidase inhibitor, Celgosivir prevents DENV secretion in primary human macrophages with an EC50 of 5 μM and has CC50 greater than 1000 μM in MBDK cells ([Whitby et al., 2004]; [Sung et al., 2016]).

[2] = system: ZIKV strain PRVABC59; test: Antiviral screening assay (MTS cell viability after infection) in CHME3 cells; type: cell-based, Zika virus
Protocol: as §1

[3] = system: ZIKV strain PRVABC59; test: Antiviral screening assay (MTS cell viability after infection) in Vero cells; type: cell-based, Zika virus
Protocol: as §1

[4] = system: ZIKV PRVABC59; test: Virus yield reduction assay (qRT-PCR and TCID50) in CHME3 cells; type: cell-based, Zika virus; settings: 1 μM, 48 hpi
Protocol: (§2) Zika virus yield reduction following treatment with iminosugars was assessed by measuring the NS1 gene by a previously described quantitative reverse transcription-polymerase chain reaction (qRT-PCR) and infectious virus titration in Vero cells ([Reed and Muench, 1938]; [Goebel et al., 2016]). Vero and CHME3 cells pre-treated 1 μM of castanospermine, celgosivir or DNJ for 2 h and then were infected with PRVABC59 either at MOI 0.5 or 5 in infection medium. After 2 h of incubation with the virus, medium from cells was removed, cells were washed with phosphate buffered saline, and fresh infection medium containing 1 μM of castanospermine, celgosivir or DNJ was added to the wells. At 48 and 72 hpi, culture supernatants were harvested and stored at −80°C until use for viral RNA extraction. Viral RNA was extracted from 50 μl of sample using the MagMAX-96 Viral RNA Isolation Kit (Applied Biosystems, Foster City, CA, United States) on a MagMAX Express-96 Deep Well Magnetic Particle Processor (Applied Biosystems). The amount of ZIKV genomic RNA was measured by qRT-PCR using SuperScript® III Platinum One-Step qRT-PCR Kit on a 7500 Fast Real-Time PCR System (Applied Biosystems). The primers (F: 5′-[…]-3′, R: 5′-[…]-3′) and probe sequence (5′- FAM-TGCCCAACA/ZEN/CAAGGTGAAGCC TACCT-BHQ) were purchased from Integrated DNA Technologies (IDT; Coralville, IA, United States), and the qRT-PCR cycling conditions included an initial cDNA synthesis for 30 min at 50°C, followed by 2 min at 95°C and 45 cycles of 2-step cycling at 95°C for 15 s, then 55°C for 30 s ([Goebel et al., 2016]). The ZIKV copy numbers were quantified using a standard curve generated with serial dilutions of positive control ZIKV RNA standards derived from ZIKV with known TCID50 value. Cell culture supernatants were titrated for the infectious virus in Vero cells, and titer was expressed as TCID50 calculated using the Reed-Muench method ([Reed and Muench, 1938]).

[5] = system: Vero cells; test: Cytotoxicity, MTS cell viability assay in Vero cells; type: cell-based, African green monkey; settings: 72 h post treatment
Protocol: as §1

[6] = system: ZIKV PRVABC59; test: Virus yield reduction assay (qRT-PCR and TCID50) in Vero cells; type: cell-based, Zika virus; settings: 1 μM, 48 hpi
Protocol: as §2

[7] = system: ZIKV; parameters: method as in Ma et al., 2018; settings: ref Ma et al., 2018, cited from earlier work

| Structure (SMILES) | metabolic activity (cytotoxicity, MTS) ([1]; 1000 μM) | metabolic activity compared to vehicle control (cytotoxicity, MTS) ([1]; 0.01 to 100 μM) | ZIKV-induced cell death (MTS) ([2]; CHME3 cells, PRVABC59, MOI 1, 72 hpi) | viability at 0.01 µM ([2]; Zika virus, read-out: cell viability following ZIKV infection) [%] | ZIKV-induced cell death (MTS) ([3]; Vero cells, PRVABC59, MOI 1, 72 hpi) | viability at 0.01 µM ([3]; Zika virus, Vero, read-out: cell viability following ZIKV infection) [%] | infectious PRVABC59 ZIKV titers (TCID50) ([4]; MOI 0.5) | infectious PRVABC59 ZIKV titers (TCID50) ([4]; MOI 5, p ≤ 0.0433) | metabolic activity (cytotoxicity, MTS) ([5]; 1000 μM) | metabolic activity compared to vehicle control (cytotoxicity, MTS) ([5]; 0.01 to 100 μM) | PRVABC59 ZIKV RNA in supernatant compared with vehicle control (qRT-PCR) ([6]; MOI 0.5 and MOI 5, p ≤ 0.0318) | infectious PRVABC59 ZIKV titers (TCID50) ([6]; MOI 0.5 and MOI 5, p ≤ 0.0433) | ZIKV RNA production ([7]; HEK293 embryonic kidney cells, MOI 0.1, 0.1 μM, the lowest concentration tested) | ZIKV viral replication ([7]; embryonic kidney cells) |
| --- | --- | --- | --- | --- | --- | --- | --- | --- | --- | --- | --- | --- | --- | --- |
| OC[C@H]1NC[C@H](O)[C@@H](O)[C@@H]1O [DNJ, 1-deoxynojirimycin hydrochloride] | decrease in metabolic activity | No reduction in metabolic activity | reduce ZIKV-induced cell death | > 90 | reduce ZIKV-induced cell death | > 90 | statistically significant reduction | statistically significant reduction | decrease in metabolic activity | No reduction in metabolic activity | Significant reductions | statistically significant reduction | – | – |
| CC(C)(C)NC(=O)N(CCCCCCN1C[C@H](O)[C@@H](O)[C@H](O)[C@H]1CO)C1CCCCC1 [IHVR-19029] | – | – | – | – | – | – | – | – | – | – | – | – | decreased ZIKV RNA production | reduced |

Source: publication PMC7179685, “Iminosugars With Endoplasmic Reticulum α-Glucosidase Inhibitor Activity Inhibit ZIKV Replication and Reverse Cytopathogenicity in vitro” (Frontiers in Microbiology, 2020)
